Source: patent US9364449B2, “Peptoid and synthetic oligomers, pharmaceutical compositions and methods of using same” (New York University, priority 2011, dated 2016)
“Also recorded” adds a separate entry of the source. Non-standard residues stand in square brackets, D forms with d. Residues, ends and D or L forms follow the SMILES beside them. No end group written: not given here. Sar = CNCC(=O)O

Legend:
Aβ1-40 [1] = target: T1, Aβ1-40 (Homo sapiens, UniProt P05067); assay: Thioflavine-T aggregation assay, Aβ1-40 aggregated in the presence of compound; type: biochemical
T1 construct: made in house; host or cells: chemical solid-phase peptide synthesis (L-amino acids), RP-HPLC purified
Protocol: (§1) Peptoid modified derivatives of the KLVFFA (SEQ ID NO: 4) sequence were tested using Thioflavine-T aggregation assay to determine whether or not they are capable of forming fibrils themselves. […] In these treatment experiments, 100 μM Aβ40 or Aβ42 was mixed with 1-100 μM of the investigated compound and incubated up to 14 days. […] They were incubated alone or in the presence of peptoid modified derivatives of KLVFFA (SEQ ID NO: 4) sequence at concentrations of 1-100 μM. In addition, peptoid modified derivatives of KLVFFA (SEQ ID NO: 4) sequence were incubated alone as indicated above at the concentration of 100 μM. At the indicated intervals, samples containing 15 μg of incubated peptides were added to 1 mL of 50 mM/L glycine, pH 9.2 and 2 μM/L of Thioflavin-T (Sigma Chemical, Co.; St. Louis, Mo.). Fluorescence was measured at excitation 435 nm and emission 485 nm in a Hitachi F-2000 fluorescence spectrophotometer. A time scan of fluorescence was performed and three values after the decay reached a plateau (280, 290, 300 seconds) were averaged. The background fluorescence of 40 μl of Tris buffer added to 2 μM/L of Thioflavin-T solution was subtracted. Samples were run in duplicate. Differences in amount of fibrils formed by different peptides at particular time points were evaluated by one-way ANOVA followed by Tukey post hoc test.

[2] = Thioflavine-T aggregation assay, compound incubated alone (own fibril formation); type: physicochemical; conditions: compound alone at 100 μM
Protocol: as §1

Aβ1-40 [3] = target: T1, Aβ1-40; assay: Oligomerization assay (glutaraldehyde cross-linking, Western blot, densitometry); type: biochemical; conditions: 100 μM Aβ1-40 with 10 μM compound (10:1 Aβ:inhibitor), 4° C., 24 h
Protocol: Autoradiography films were converted into 8 bit grayscale digital files using a Epson Perfection 4990 scanner (Epson America; Long Beach, Calif.) and Adobe Photoshop CS4 (Adobe Systems; San Jose, Calif.) and saved in a TIF format with a resolution of 600 dpi. Densitometric analysis of Western and dot-blot signals was performed using NIH Image J software v 1.42 (Bethesda, Md.) as previously described (Pankiewicz et al., 2006. Eur. J. Neurosci. 23, 2635-47; Sadowski et al., 2009. Neurobiol Dis; 34, 267-78).
The rationale is that Aβ oligomeric assemblies are particularly toxic to synaptic components and impair neurotransmission. […] GKLVFNmgA (SEQ ID NO: 310:1 Aβ:inhibitor ratio). Prior to electrophoresis, glutaraldehyde (0.4 mM final concentration) was added to prevent disassembly of complexes. Samples were immediately subjected to electrophoresis in non-reducing condition, Western-transfer, and detection with a mixture of 4G8 and 6E10 anti-Aβ Mabs.

[4] = tested on: primary hippocampal neurons; assay: Immunocytochemistry and quantification of synaptic protein expression in neurons exposed to Aβ40; type: cell-based, C57bL/6 mice
Protocol: P0-P1 pups of C57bL/6 mice were killed by decapitation and brains were removed in aseptic conditions. To establish cultures of primary hippocampal neurons the hippocampi were dissected from both hemispheres under AmScope stereoscopic microscope (AmScope, Chino, Calif.). Fragments of tissue were placed in the ice-cold Ca^2+ and Mg^2+ free Hank's balanced salt solution (HBSS) and gently cut further into fine pieces which were then treated with 0.05% trypsin in HBSS for 10 min at 37° C. to obtain cell suspension. Following addition of 0.1% type-I-S trypsin inhibitor and 0.05% DNase I, the cell suspension was centrifuged at 500×g for 30 sec. The resulting pellet was triturated, centrifuged again at 500×g for 5 min and resuspended in the minimal essential medium (MEM) supplemented with heat-inactivated 10% fetal bovine serum (FBS), 0.5 mM glutamine, streptomycin (50 μg/ml) and penicillin (50 U/ml). The cell suspension was then filtered through a 70-μm mesh, and the cells were counted using hematocytometer (Hausser Scientific, Horsham, Pa.). The cells were seeded on poly-L-lysine coated 12-well plates. For biochemical analysis 5×10^5 cells were seeded directly on the bottom of each well whereas for immunohistochemistry a removable, poly-L-lysine coated round coverslip was placed on the bottom of the well and the number of seeded cells was reduced to 1×10^5 per well. The neurons were allowed to adhere to the surface for four hours and then the medium was replaced with the serum-free Neurobasal medium containing 2% B27 supplement, 0.5 mM glutamine, streptomycin (50 μg/ml) and penicillin (50 U/ml). At three days in vitro (DIV) 5 μM of cytosine-β-D-arabinoside (Ara C) was added for 48 hr to inhibit division of non-neuronal cells. At 7 DIV one well from each preparation of primary hippocampal neurons was randomly selected to determine the purity of the culture. This was done by calculating the ratio of cells immunostained against microtubule-associated protein 2 (MAP2), which is a neuronal specific marker against all cells stained with 4′,6-diamidino-2-phenylindole (DAPI) nucleic acid stain.
Monomerized Aβ40 peptides were diluted in cell culture media and added to neuronal monocultures for 24 or 72 hr.

[5] = tested on: primary hippocampal neurons; assay: Accumulation of aggregated FITC labeled Aβ1-40 on the surface of neurons; type: cell-based, C57bL/6 mice; conditions: 18 DIV neurons, FITC labeled Aβ1-40, treated with compound
Protocol: P0-P1 pups of C57bL/6 mice were killed by decapitation and brains were removed in aseptic conditions. To establish cultures of primary hippocampal neurons the hippocampi were dissected from both hemispheres under AmScope stereoscopic microscope (AmScope, Chino, Calif.). Fragments of tissue were placed in the ice-cold Ca^2+ and Mg^2+ free Hank's balanced salt solution (HBSS) and gently cut further into fine pieces which were then treated with 0.05% trypsin in HBSS for 10 min at 37° C. to obtain cell suspension. Following addition of 0.1% type-I-S trypsin inhibitor and 0.05% DNase I, the cell suspension was centrifuged at 500×g for 30 sec. […] The cell suspension was then filtered through a 70-μm mesh, and the cells were counted using hematocytometer (Hausser Scientific, Horsham, Pa.). […]
Coverslip inserts covered by the primary hippocampal neuro^ns were immersed three times in PBS at 37° C., and then in 80% ice-cold methanol for 10 min to fix the neurons, and washed again three times in PBS. […] Biotinylated secondary antibodies (1:1,000) followed by Cy3 conjugated streptavidine (1:500) were used to detected binding of primary Abs to their antigens. […] Immunostained neurons were analyzed under 80i Nikon fluorescent microscope (Nikon Corp. Tokyo, Japan). […]

[6] = tested on: primary hippocampal neurons; assay: Intraneuronal Aβ accumulation (Western blot of neuronal lysates, densitometry); type: cell-based, C57bL/6 mice; conditions: 10 μM Aβ40 with or without compound, p<0.01
Protocol: P0-P1 pups of C57bL/6 mice were killed by decapitation and brains were removed in aseptic conditions. To establish cultures of primary hippocampal neurons the hippocampi were dissected from both hemispheres under AmScope stereoscopic microscope (AmScope, Chino, Calif.). Fragments of tissue were placed in the ice-cold Ca^2+ and Mg^2+ free Hank's balanced salt solution (HBSS) and gently cut further into fine pieces which were then treated with 0.05% trypsin in HBSS for 10 min at 37° C. to obtain cell suspension. Following addition of 0.1% type-I-S trypsin inhibitor and 0.05% DNase I, the cell suspension was centrifuged at 500×g for 30 sec. The resulting pellet was triturated, centrifuged again at 500×g for 5 min and resuspended in the minimal essential medium (MEM) supplemented with heat-inactivated 10% fetal bovine serum (FBS), 0.5 mM glutamine, streptomycin (50 μg/ml) and penicillin (50 U/ml). The cell suspension was then filtered through a 70-μm mesh, and the cells were counted using hematocytometer (Hausser Scientific, Horsham, Pa.). The cells were seeded on poly-L-lysine coated 12-well plates. For biochemical analysis 5×10^5 cells were seeded directly on the bottom of each well whereas for immunohistochemistry a removable, poly-L-lysine coated round coverslip was placed on the bottom of the well and the number of seeded cells was reduced to 1×10^5 per well. […]

[7] = tested on: eAβ1-x in brain interstitial fluid (ISF); assay: In vivo microdialysis of brain interstitial fluid eAβ in AD transgenic mice; parameters: species or system APPSW/PS1L166P AD transgenic mice; conditions: 100 μM compound by reverse microdialysis into hippocampal CA1
Protocol: Mice were anesthetized with an intraperitoneal injection of Ketamine (50 mg/kg) and Xylazine (10 mg/kg). An MBR-10 guide cannula was stereotactically implanted into the right hippocampus (bregma −3.1 mm, 2.4 mm lateral, 12° angle). Four hours later mice were anesthetized again for the insertion of a BR-4 microdialysis probe with 38 kDa molecular weight cutoff (MWCO) membrane (Cirrito et al., 2008. 2008. Neuron; 58, 42-51) which was introduced through the implanted guide cannula. The probe was positioned so that the microdialysis membrane was almost entirely embedded in the strata radiatum and lacunosum-moleculare of the CA1 hippocampal sector (FIG. 8A). […]
eAβ level in the ISF dialyzate was determined using sandwich ELISA specific for human Aβ1-x. […] Absorbance was read on the Epoch Microplate Spectrophotometer (BioTek Instruments, Inc. Winooski, Vt.). Following background subtraction, absorbance values from serially diluted synthetic Aβ samples were used to generate a standard curve in GraphPad Prism v5.02 (GraphPad Software, Inc., San Diego) using a non-linear curve-fitting algorithm. eAβ concentration in dialysate samples was determined by comparing their absorbance values against the standard curve. […]

[8] = In vivo pharmacokinetic studies in rats
[9] = tested on: SK-N-SH human neuroblastoma cells; assay: MTT toxicity assay; conditions: four day MTT cytotoxicity assay
Protocol: SK-N-SH cells were plated at 10,000 cells/100 μl per well in flat-bottom, 96-well microtiter plates and incubated with 1-100 μmol/L concentrations of tested peptides for two days after which cell viability was assessed using a metabolic assay, which is based on cleavage of the yellow tetrazolium salt (MTT) to purple formazan crystals by viable cells. The MTT assay (Roche Molecular Biochemicals, Indianapolis, Ind.) was performed according to the manufacturer's instructions.

[10] = 18 DIV neurons, 10 μM Aβ40 plus 5 μM compound, 72 hr

T1 sequence (P05067 672-711): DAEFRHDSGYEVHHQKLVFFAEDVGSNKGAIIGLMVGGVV

Row | Compound | inhibitory effect on the aggregation of Aβ1-40 (Aβ1-40 [1]; 1 μM compound, 100 μM Aβ1-40 (1:100 compound:Aβ ratio), p<0.001) | dose dependent effect on aggregation of Aβ1-40 (Aβ1-40 [1]; 100 μM Aβ1-40, 1-100 μM compound) | fibril formation by the compound itself [2] | reduction of the amount of Aβ oligomers (densitometric analysis) (Aβ1-40 [3]) | NR1 NMDA receptor subunit positive densities, % of the control [4, 10] | PSD-95 positive densities, % of the control [4, 10] | synaptophysin positive densities, % of the control [4, 10] | effect of compound alone on the expression of NR1, synaptophysin and PSD-95 ([4]; neurons treated with compound alone, no Aβ) | accumulation of aggregated Aβ1-40 on the surface of neurons [5] | less Aβ accumulated in neurons after six hr of exposure ([6]; 6 hr) | less Aβ accumulated in neurons after 24 hr of exposure ([6]; 24 hr) | hour after the infusion onset from which the increase in eAβ was observed [7] | blood brain barrier (BBB) penetration [8] | detection in the cerebrospinal fluid (CSF) ([8]; following intravenous administration) | level in plasma after intranasal delivery ([8]; intranasal) | level in plasma following oral delivery ([8]; oral) | half-life ([8]; rat, in vivo) | concentration at which toxicity was exhibited in MTT assay [9]
1 | CC(C)CC(NC(=O)C(CCCCN)NC(=O)CN)C(=O)NC(C(=O)NC(Cc1ccccc1)C(=O)N(C)CC(=O)NC(C)C(N)=O)C(C)C (stereo not drawn) [GKLVFNmgA] (H-GKLVF[Sar]A-NH2; configuration not given here) | strong inhibitory effect | strong dose dependent effect | did not form fibrils itself; also recorded: does not form fibrils itself | 61.3% | 83 % of the control | 82.3 % of the control | 84.5 % of the control | no significant effect | Reduction in the number of AB aggregates; also recorded: Reduced accumulation | 29.8% | 49.3% | seventh | good | can be detected | High level | Lesser level | < 2 h | –
2 | GKLVFFA-NH2 [GKLVFFA] | – | – | – | – | – | – | – | – | – | – | – | – | – | – | – | – | – | 100 µM
